Laboratory results as given in ChEMBL document CHEMBL3817788, “Natural cholinesterase inhibitors from Myristica cinnamomea King” (Bioorg Med Chem Lett, 2016).

What was measured:
[1] = Inhibition of Saccharomyces cerevisiae alpha-glucosidase using p-nitrophenyl-alpha-D-glucopyranoside as substrate preincubated for 10 mins followed by substrate addition measured after 10 mins
Acetylcholinesterase [2] = experiment: Inhibition of AChE (unknown origin) at 100 ug/ml using acetylthiocholine iodide as substrate incubated for 30 mins by Ellman's microplate assay; conditions: Homo sapiens
[3] = molecular target: Cholinesterase (Equus caballus) (UniProt P81908); experiment: Inhibition of equine serum BChE at 100 ug/ml using S-butyrylthiocholine chloride as substrate incubated for 30 mins by Ellman's microplate assay
Sequence of Cholinesterase (Equus caballus) (P81908 whole entry): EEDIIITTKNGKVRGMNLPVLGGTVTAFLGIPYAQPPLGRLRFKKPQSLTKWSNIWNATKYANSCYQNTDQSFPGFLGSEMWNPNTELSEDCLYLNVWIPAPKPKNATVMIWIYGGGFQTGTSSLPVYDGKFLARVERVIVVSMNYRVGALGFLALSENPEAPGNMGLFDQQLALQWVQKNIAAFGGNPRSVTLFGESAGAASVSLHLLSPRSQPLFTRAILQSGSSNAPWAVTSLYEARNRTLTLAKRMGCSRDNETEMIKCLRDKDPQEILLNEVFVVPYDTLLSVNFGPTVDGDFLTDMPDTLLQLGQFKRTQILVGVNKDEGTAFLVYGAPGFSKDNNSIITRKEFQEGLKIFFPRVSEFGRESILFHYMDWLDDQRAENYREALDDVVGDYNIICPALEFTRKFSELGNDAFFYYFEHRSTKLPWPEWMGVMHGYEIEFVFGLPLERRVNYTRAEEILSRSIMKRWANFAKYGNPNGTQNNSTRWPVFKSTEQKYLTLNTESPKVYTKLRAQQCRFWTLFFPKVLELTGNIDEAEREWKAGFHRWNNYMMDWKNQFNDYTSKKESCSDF

Acetylcholinesterase [4] = molecular target: T1, Acetylcholinesterase (Homo sapiens, UniProt P22303); experiment: Inhibition of AChE (unknown origin) using acetylthiocholine iodide as substrate incubated for 30 mins by Ellman's microplate assay
T1 sequence (P22303 whole entry): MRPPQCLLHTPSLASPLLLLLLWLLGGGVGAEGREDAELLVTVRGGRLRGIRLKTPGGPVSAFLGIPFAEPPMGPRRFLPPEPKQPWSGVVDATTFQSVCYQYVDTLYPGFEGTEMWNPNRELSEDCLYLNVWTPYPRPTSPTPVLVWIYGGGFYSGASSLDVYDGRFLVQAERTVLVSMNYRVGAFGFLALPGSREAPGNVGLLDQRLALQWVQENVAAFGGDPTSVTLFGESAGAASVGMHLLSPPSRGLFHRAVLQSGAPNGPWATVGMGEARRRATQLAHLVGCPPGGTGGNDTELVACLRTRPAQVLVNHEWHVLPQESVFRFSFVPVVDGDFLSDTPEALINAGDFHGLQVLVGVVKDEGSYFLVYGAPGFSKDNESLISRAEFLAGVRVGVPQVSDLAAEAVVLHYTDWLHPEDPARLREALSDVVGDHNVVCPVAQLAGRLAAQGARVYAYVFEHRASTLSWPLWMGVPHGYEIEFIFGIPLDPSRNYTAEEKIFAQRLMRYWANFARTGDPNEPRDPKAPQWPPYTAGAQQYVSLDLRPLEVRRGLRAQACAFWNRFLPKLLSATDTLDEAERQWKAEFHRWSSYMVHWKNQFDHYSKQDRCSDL

Cholinesterase [5] = molecular target: T2, Cholinesterase (Equus caballus, UniProt P81908); experiment: Inhibition of equine serum BChE using S-butyrylthiocholine chloride as substrate incubated for 30 mins by Ellman's microplate assay
T2 sequence (P81908 whole entry): as the sequence (P81908 whole entry) above

[6] = Selectivity index, ratio of IC50 for equine serum BChE to IC50 for AChE (unknown origin)
[7] = Selectivity index, ratio of IC50 for AChE (unknown origin) to IC50 for equine serum BChE
Cholinesterase [8] = molecular target: T2, Cholinesterase; experiment: Mixed inhibition of equine serum BChE using S-butyrylthiocholine chloride as substrate incubated for 30 mins by Lineweaver-Burk plot analysis
Acetylcholinesterase [9] = molecular target: T1, Acetylcholinesterase; experiment: Mixed inhibition of AChE (unknown origin) using acetylthiocholine iodide as substrate incubated for 30 mins by Lineweaver-Burk plot analysis

SMILES	IC50 [1]	inhibition (Acetylcholinesterase [2])	inhibition [3]	IC50 (Acetylcholinesterase [4])	IC50 (Cholinesterase [5])	Ratio IC50 [6]	Ratio IC50 [7]	Ki (Cholinesterase [8])	Ki (Acetylcholinesterase [9])
O=C(CCCCCCCCc1cc(O)c(O)cc1-c1ccc(O)c(C(=O)CCCCCCCCc2ccccc2)c1O)c1c(O)cccc1O	5.05 µM	–	–	–	–	–	–	–	–
O=C1CC(CCCCCCc2ccc(O)cc2)Oc2cccc(O)c21 (centres undefined)	359 µM	–	–	–	–	–	–	–	–
O=C(CCCCCCCCc1ccc(O)c(O)c1)c1c(O)ccc(C(CCCCCCCCc2ccc(O)c(O)c2)c2c(O)cccc2O)c1O (centres undefined)	–	75.4%	81.1%	12.7 µM	10.5 µM	0.83	1.2	–	–
O=C(CCCCCCCCc1ccc(O)c(O)c1)c1c(O)ccc(C(CCCCCCCCc2ccc(O)cc2)c2c(O)cccc2O)c1O (centres undefined)	–	91.5%	86.7%	30.7 µM	12.5 µM	0.41	2.45	–	–
O=C(CCCCCCCCc1ccc(O)cc1)c1c(O)cc(O)cc1O	–	99.4%	86.8%	6.44 µM	6.65 µM	1.03	0.97	–	–
O=C(O)CCCCCCCCc1ccc(O)cc1	–	45.1%	49%	–	–	–	–	–	–
O=C(CCCCCCCCc1ccccc1)c1c(O)cccc1O [MALABARICONE A]	–	97.4%	69.5%	1.31 µM	39.2 µM	33	0.04	–	–
O=C(CCCCCCCCc1ccc(O)cc1)c1c(O)cccc1O [MALABARICONE B]	–	95.9%	87.3%	1.84 µM	1.76 µM	0.96	1.05	0.56 µM	4.33 µM
O=C(CCCCCCCCc1ccc(O)c(O)c1)c1c(O)cccc1O [MALABARICONE C]	–	97.1%	94.1%	1.94 µM	2.8 µM	1.44	0.69	11.5 µM	5.86 µM
